One test addresses T1, Recombinant human ASK1 kinase (Homo sapiens, UniProt Q99683).
T1 construct: purchased Invitrogen Inc
T1 sequence (Q99683 1-1374): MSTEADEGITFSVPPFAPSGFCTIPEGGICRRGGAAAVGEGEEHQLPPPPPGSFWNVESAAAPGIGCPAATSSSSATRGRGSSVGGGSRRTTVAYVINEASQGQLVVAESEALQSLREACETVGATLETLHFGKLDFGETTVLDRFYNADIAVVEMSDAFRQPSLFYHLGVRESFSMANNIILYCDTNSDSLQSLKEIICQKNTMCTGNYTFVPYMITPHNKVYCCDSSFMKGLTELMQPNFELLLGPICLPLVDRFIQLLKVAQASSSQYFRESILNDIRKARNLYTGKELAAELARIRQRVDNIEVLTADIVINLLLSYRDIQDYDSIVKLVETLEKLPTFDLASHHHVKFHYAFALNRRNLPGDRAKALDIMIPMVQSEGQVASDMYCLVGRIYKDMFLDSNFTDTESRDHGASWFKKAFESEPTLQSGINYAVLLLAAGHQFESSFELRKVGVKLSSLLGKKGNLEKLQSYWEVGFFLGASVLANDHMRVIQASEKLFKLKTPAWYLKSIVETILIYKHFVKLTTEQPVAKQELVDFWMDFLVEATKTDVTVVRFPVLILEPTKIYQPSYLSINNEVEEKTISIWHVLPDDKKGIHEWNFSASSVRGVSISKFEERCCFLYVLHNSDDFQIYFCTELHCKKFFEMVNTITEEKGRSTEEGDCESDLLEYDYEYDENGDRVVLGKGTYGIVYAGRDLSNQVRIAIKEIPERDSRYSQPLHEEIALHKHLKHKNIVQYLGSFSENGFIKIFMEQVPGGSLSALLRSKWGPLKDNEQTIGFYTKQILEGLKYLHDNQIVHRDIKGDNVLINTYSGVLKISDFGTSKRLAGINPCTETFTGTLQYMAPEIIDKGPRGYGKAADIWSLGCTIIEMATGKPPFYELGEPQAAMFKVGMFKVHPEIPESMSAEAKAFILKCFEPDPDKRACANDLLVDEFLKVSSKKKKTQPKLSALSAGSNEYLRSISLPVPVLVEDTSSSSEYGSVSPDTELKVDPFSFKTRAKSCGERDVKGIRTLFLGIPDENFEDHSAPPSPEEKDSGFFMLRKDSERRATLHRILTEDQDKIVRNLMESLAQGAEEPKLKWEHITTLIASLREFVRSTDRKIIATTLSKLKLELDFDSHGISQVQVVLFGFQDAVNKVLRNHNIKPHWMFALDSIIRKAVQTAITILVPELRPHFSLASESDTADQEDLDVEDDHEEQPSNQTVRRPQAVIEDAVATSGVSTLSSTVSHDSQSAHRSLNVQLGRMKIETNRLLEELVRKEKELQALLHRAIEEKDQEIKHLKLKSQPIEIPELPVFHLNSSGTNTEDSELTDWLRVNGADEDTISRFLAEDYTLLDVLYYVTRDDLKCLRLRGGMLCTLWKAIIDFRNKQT
Put plainly: ASK1 kinase HTRF assay (HTRF KinEASE-STK, phosphorylation of biotinylated peptide substrate). Format: biochemical.
Conditions: not given
As to the method: Reagents: Recombinant human ASK1 kinase was from Invitrogen Inc. HTRF KinEASETM-STK S3 kit was obtained from Cisbio (Bedford, Mass.). All other reagents were of the highest grade commercially available.
Assay: The assay measures the phosphorylation level of a biotinylatd peptide substrate by the ASK1 kinase using HTRF detection. ASK1 kinase assay is based on HTRF KinEASETM-STK manual from Cisbio. Test compound, 1 uM STK-substrate-biotin, 3 nM of ASK1 kinase are incubated with 1*Kinase buffer with 5 mM MgCl2 and 1 mM DTT.
For the molecule `CC(C)n1cnnc1-c1cccc(NC(=O)Nc2ccccn2)n1` [Compound I-025], the half-maximal effective concentration (EC50) is below 50 nM.
As to `C[C@H](CO)n1cnnc1-c1cccc(NC(=O)Nc2cc(C(=O)N3CCNCC3)ccn2)n1` [Compound I-140], the EC50 was below 50 nM.
On to `C[C@H](CO)n1cnnc1-c1cccc(NC(=O)Nc2cc(C(=O)N3CCC(=O)CC3)ccn2)n1` [Compound I-135], for which the EC50 was below 50 nM.
Still for that read-out and setting: the value for `C[C@H](CO)n1cnnc1-c1cccc(NC(=O)Nc2cc(C(=O)N3CCCC3)ccn2)n1` [Compound I-146] was below 50 nM.

The same test, now with this note: 3 nM ASK1 kinase, 1 uM STK-substrate-biotin, HTRF detection; read-out: EC50.
Turning to `C[C@H](CO)n1cnnc1-c1cccc(N2CCN(c3ccc(C(=O)N4CCOCC4)cn3)C2=O)n1` [Compound V-26], the EC50 is below 50 nM.
For `CC(C)n1cnnc1-c1cccc(NC(=O)Nc2cc(C(=O)N3CCN(C)CC3)ccn2)n1` [Compound I-141], the EC50 was below 50 nM.
Same read-out and setting: with `CC(C)n1cnnc1-c1cccc(NC(=O)Nc2cc(C(=O)Nc3cccc(F)c3)ccn2)n1` [Compound I-157] the figure was below 50 nM; with `CC(C)n1cnnc1-c1cccc(NC(=O)Nc2cc(C(=O)Nc3ccc(-c4ccccc4)cc3)ccn2)n1` [Compound I-155], below 50 nM.
`CC(C)n1cnnc1-c1cccc(NC(=O)Nc2cc(C#N)ccn2)n1` [Compound I-198]: the EC50 was below 50 nM.
Same read-out and setting: with `C[C@@H](CO)n1cnnc1-c1cccc(NC(=O)Nc2cc(Cl)ccn2)n1` [Compound I-183] the figure was below 50 nM.
The same measure, in the same setting: the value for `CC(C)n1cnnc1-c1cccc(NC(=O)Nc2cc(C3CCCCC3)ccn2)n1` [Compound I-049] was below 50 nM; that for `CC(C)n1cnnc1-c1cccc(NC(=O)Nc2cc(-n3cnc(C4CC4)c3)ccn2)n1` [Compound I-170] was below 50 nM.
Consider `CCc1ccnc(NC(=O)Nc2cccc(-c3nncn3C(C)C)n2)c1` [Compound I-042], for which the EC50 was below 50 nM.
Take `CC(C)n1cnnc1-c1cccc(NC(=O)Nc2cc(C(N)=O)ccn2)n1` [Compound I-108]: the EC50 was below 50 nM.
Still for that read-out and setting: with `C[C@H](CO)n1cnnc1-c1cccc(NC(=O)Nc2cc(C(=O)N3CCC(N4CCOCC4)CC3)ccn2)n1` [Compound I-131] the figure was below 50 nM; with `CC(C)n1cnnc1-c1cccc(NC(=O)Nc2cc(N3CCOCC3)ccn2)n1` [Compound I-094], below 50 nM; with `C[C@H](CO)n1cnnc1-c1cccc(NC(=O)Nc2cc3ccccc3cn2)n1` [Compound I-058], below 50 nM.
For the molecule `CC(C)n1cnnc1-c1cccc(NC(=O)Nc2ccc(CO)cn2)n1` [Compound I-208], the EC50 was below 50 nM.
For `C[C@H](CO)n1cnnc1-c1cccc(NC(=O)Nc2cc(N3CCNCC3)ccn2)n1` [Compound I-096], the EC50 was below 50 nM.
With `CC(C)n1cnnc1-c1cccc(NC(=O)Nc2cc(C(=O)Nc3ccccc3F)ccn2)n1` [Compound I-156], the concentration for a half-maximal effect (EC50) is below 50 nM.
Regarding `CC(C)n1cnnc1-c1cccc(NC(=O)Nc2cc(N3CCN(S(C)(=O)=O)CC3)ccn2)n1` [Compound I-102], the EC50 is below 50 nM.
For the molecule `C[C@H](CO)n1cnnc1-c1cccc(NC(=O)Nc2cc(-c3ccc(C4CC4)nc3)ccn2)n1` [Compound I-002, 3-[4-(6-Cyclopropylpyridin-3-yl)pyridin-2-yl]-1-(6-{4-[(2R)-1-hydroxypropan-2-yl]-4H-1,2,4-triazol-3-yl}pyridin-2-yl)urea], the EC50 is below 50 nM.
For `C[C@H](CO)n1cnnc1-c1cccc(NC(=O)Nc2cc(C(=O)N3CCC(O)CC3)ccn2)n1` [Compound I-137], the EC50 was below 50 nM.
As to `CC(C)n1cnnc1-c1cccc(NC(=O)Nc2ncccc2-c2ccncc2)n1` [Compound I-083], the EC50 is 50 to 500 nM.
Still for that read-out and setting: the value for `CC(C)n1cnnc1-c1cccc(NC(=O)Nc2cc(C(C)(C)O)ccn2)n1` [Compound I-213] was below 50 nM; that for `CC(C)n1cnnc1-c1cccc(NC(=O)Nc2cc(-c3cccnc3)ccn2)n1` [Compound I-086] was below 50 nM.
Regarding `CC(C)n1cnnc1-c1cccc(NC(=O)Nc2ccc(N(C)C)cn2)n1` [Compound I-191], the EC50 is below 50 nM.
`Cc1ccc(NC(=O)Nc2cccc(-c3nncn3C(C)CO)n2)nc1` (centres unmarked) [Compound I-035]: the EC50 is below 50 nM.
On the same count and under the same terms, with `Cc1ccc(NC(=O)Nc2cccc(-c3nncn3[C@@H](C)CO)n2)nc1` [Compound I-037] the figure was 50 to 500 nM; with `COc1ccc(NC(=O)Nc2cccc(-c3nncn3C(C)C)n2)nc1` [Compound I-051], below 50 nM.
On the same count and under the same terms, the value for `C[C@H](CO)n1cnnc1-c1cccc(NC(=O)Nc2cc(C(=O)N3CCN(C)CC3)ccn2)n1` [Compound I-142] was below 50 nM; that for `CC(C)n1cnnc1-c1cccc(NC(=O)Nc2cc(N3CCNCC3)ccn2)n1` [Compound I-095, 1-(6-(4-Isopropyl-4H-1,2,4-triazol-3-yl)pyridin-2-yl)-3-(4-(piperazin-1-yl)pyridin-2-yl)urea] was below 50 nM; that for `CC(C)n1cnnc1-c1cccc(NC(=O)Nc2cc(N3CCCC3)ccn2)n1` [Compound I-167] was below 50 nM.
`CC1(n2cnnc2-c2cccc(NC(=O)Nc3cc(C(=O)N4CCCCC4)ccn3)n2)CC1` [Compound I-115]: the EC50 was below 50 nM.
`CC(C)n1cnnc1-c1cccc(NC(=O)Nc2cc(N(C)C)ccn2)n1` [Compound I-192]: the EC50 was below 50 nM.
On the same count and under the same terms, with `Cc1ccc(NC(=O)Nc2cccc(-c3nncn3C3CC3)n2)nc1` [Compound I-034] the figure was 50 to 500 nM.
Still for that read-out and setting: with `CC(C)n1cnnc1-c1cccc(NC(=O)Nc2ccc(C#N)cn2)n1` [Compound I-199] the figure was below 50 nM; with `Cc1ccc(-n2ccn(-c3cccc(-c4nncn4C(C)C)n3)c2=O)nc1` [III-05], below 50 nM; with `COc1ccnc(NC(=O)Nc2cccc(-c3nncn3[C@@H](C)CO)n2)c1` [Compound I-054], 50 to 500 nM.
Turning to `Cc1ccc(NC(=O)Nc2cccc(-c3nncn3C(C)C)n2)cc1` [Compound I-017], the half-maximal effective concentration (EC50) was in the range of 50 to 500 nM.
On to `CC(C)n1cnnc1-c1cccc(-n2ccn(-c3ccc(-c4ccccc4)cn3)c2=O)n1` [III-06], for which the EC50 was below 50 nM.
Still for that read-out and setting: with `CC(C)n1cnnc1-c1cccc(N2CCN(c3ccc(N4CCOCC4)cn3)C2=O)n1` [Compound V-12] the figure was below 50 nM.
Still for that read-out and setting: the value for `CC(C)n1cnnc1-c1cccc(NC(=O)Nc2cc(N3CCN(C)CC3)ccn2)n1` [Compound I-005, 1-(6-(4-Isopropyl-4H-1,2,4-triazol-3-yl)pyridin-2-yl)-3-(4-(4-methylpiperazin-1-yl)pyridin-2-yl)urea] was below 50 nM.
For `Cc1cnc(NC(=O)Nc2cccc(-c3nncn3C(C)C)n2)nc1` [Compound I-211], the half-maximal effective concentration (EC50) was below 50 nM.
The same measure, in the same setting: the value for `Cc1ccc(NC(=O)Nc2cccc(-c3nncn3C(C)C)n2)nc1` [Compound I-001, 1-(6-(4-Isopropyl-4H-1,2,4-triazol-3-yl)pyridin-2-yl)-3-(5-methylpyridin-2-yl) urea] was below 50 nM.
On to `CC(C)n1cnnc1-c1cccc(NC(=O)Nc2ncccc2I)n1` [Compound I-172], for which the EC50 is below 50 nM.
On the same count and under the same terms, the value for `CC(C)n1cnnc1-c1cccc(-n2ccn(-c3ccc(N4CCOCC4)cn3)c2=O)n1` [III-03, 1-(6-(4-Isopropyl-4H-1,2,4-triazol-3-yl)pyridin-2-yl)-3-(5-morpholinopyridin-2-yl)-1H-imidazol-2(3H)-one] was below 50 nM; that for `CC(C)n1cnnc1-c1cccc(NC(=O)Nc2ccc(O)cn2)n1` [Compound I-074] was below 50 nM; that for `CC(C)n1cnnc1-c1cccc(N2CCN(c3ccc(C(=O)N4CCOCC4)cn3)C2=O)n1` [Compound V-25] was below 50 nM.
Still for that read-out and setting: with `CC(C)n1cnnc1-c1cccc(NC(=O)Nc2cc(S(C)(=O)=O)ccn2)n1` [Compound I-204] the figure was below 50 nM.

The values above are taken from patent publication US11427556B2, “Urea derivatives as inhibitors of ASK1” (Hepagene Therapeutics (HK) Limited, priority 2017, dated 2022).
